Legend:
[1] = molecular target: T1, EP300 (Homo sapiens, UniProt Q09472); assay: Bromodomain assay % Ctrl determination EP300; conditions: lower numbers indicate a stronger binding
T1 construct: T7 phage strains displaying bromodomains were grown; host or cells: T7 phage in E. coli derived from BL21
T1 sequence (Q09472 1049-1156 limits assumed): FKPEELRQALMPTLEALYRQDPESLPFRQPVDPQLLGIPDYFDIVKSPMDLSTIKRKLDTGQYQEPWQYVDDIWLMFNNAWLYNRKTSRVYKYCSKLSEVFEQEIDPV
Method: (§1) Compounds that bind the bromodomain prevent its binding to the immobilized ligand thus reducing the amount of protein captured. […] Hits are identified by measuring the amount of bromodomain captured in test versus control samples. Bromodomain assays for % Ctrl determination: T7 phage strains displaying bromodomains were grown in parallel in 24-well blocks in an E. coli host derived from the BL21 strain. E. coli were grown to log-phase and infected with T7 phage from a frozen stock (multiplicity of infection=0.4) and incubated with shaking at 32° C. until lysis (90-150 minutes). The lysates were centrifuged (5,000×g) and filtered (0.2 μm) to remove cell debris. […] The liganded beads were blocked with excess biotin and washed with blocking buffer (SeaBlock (Pierce), 1% BSA, 0.05% Tween 20, 1 mM DTT) to remove unbound ligand and to reduce non-specific phage binding. […] Test compounds were prepared as 1000× stocks in 100% DMSO and subsequently diluted 1:25 in monoethylene glycol (MEG). The compounds were then diluted directly into the assays such that the final concentrations of DMSO and MEG were 0.1% and 2.4%, respectively. All reactions were performed in polypropylene 384-well plates in a final volume of 0.02 ml. […] The bromodomain concentration in the eluates was measured by qPCR. […]

[2] = molecular target: T2, BRD4(2) (Homo sapiens, UniProt O60885); assay: Bromodomain assay % Ctrl determination BRD4(2); conditions: lower numbers indicate a stronger binding
T2 construct: T7 phage strains displaying bromodomains were grown; host or cells: T7 phage in E. coli derived from BL21
Method: as §1

[3] = molecular target: T3, TAF1(2) (Homo sapiens, UniProt P21675); assay: Bromodomain assay % Ctrl determination TAF1(2); conditions: lower numbers indicate a stronger binding
T3 construct: FALZ, PBRM1-BD2, BPRM1-BDS, TAF1-BD2, TAF1L-BD2; host or cells: T7 phage grown in E. coli host derived from BL21
T3 sequence (P21675 1519-1628 limits assumed): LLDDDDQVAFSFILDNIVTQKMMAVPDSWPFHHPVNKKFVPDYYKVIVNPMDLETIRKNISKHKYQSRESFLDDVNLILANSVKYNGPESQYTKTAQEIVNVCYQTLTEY
Method: as §1

[4] = molecular target: T4, PBRM1(5) (Homo sapiens, UniProt Q86U86); assay: Bromodomain assay % Ctrl determination PBRM1(5); conditions: lower numbers indicate a stronger binding
T4 construct: T7 phage strains displaying bromodomains were grown in parallel; host or cells: T7 phage grown in E. coli host derived from BL21
T4 sequence (Q86U86 653-763 limits assumed): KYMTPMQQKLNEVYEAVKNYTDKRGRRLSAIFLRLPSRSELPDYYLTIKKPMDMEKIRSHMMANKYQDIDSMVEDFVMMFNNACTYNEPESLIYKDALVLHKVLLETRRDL
Method: as §1

[5] = molecular target: T5, SMARCA4 (Homo sapiens, UniProt P51532); assay: Bromodomain assay % Ctrl determination SMARCA4; conditions: lower numbers indicate a stronger binding
T5 construct: T7 phage strains displaying bromodomains were grown in parallel; host or cells: T7 phage grown in E. coli host derived from BL21
T5 sequence (P51532 1453-1564 limits assumed): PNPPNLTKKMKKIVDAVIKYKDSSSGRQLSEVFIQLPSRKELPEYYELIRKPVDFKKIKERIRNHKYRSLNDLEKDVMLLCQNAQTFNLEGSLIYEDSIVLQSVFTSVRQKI
Method: as §1

[6] = molecular target: T6, GCN5L2 (Homo sapiens, UniProt Q92830); assay: Bromodomain assay % Ctrl determination GCN5L2; conditions: lower numbers indicate a stronger binding
T6 construct: T7 phage strains displaying bromodomains were grown in parallel; host or cells: T7 phage grown in E. coli host derived from BL21
T6 sequence (Q92830 728-832 limits assumed): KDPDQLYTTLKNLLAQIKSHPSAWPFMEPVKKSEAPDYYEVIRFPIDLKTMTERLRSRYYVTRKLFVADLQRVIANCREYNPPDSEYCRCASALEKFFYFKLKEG
Method: as §1

[7] = molecular target: T7, CECR2 (Homo sapiens, UniProt Q9BXF3); assay: Bromodomain assay % Ctrl determination CECR2; conditions: lower numbers indicate a stronger binding
T7 construct: T7 phage strains displaying bromodomains were grown; host or cells: T7 phage in E. coli derived from BL21
T7 sequence (Q9BXF3 434-538 limits assumed): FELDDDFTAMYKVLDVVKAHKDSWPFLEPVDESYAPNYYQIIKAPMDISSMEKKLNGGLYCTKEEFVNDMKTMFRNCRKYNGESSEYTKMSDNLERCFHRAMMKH
Method: as §1

[8] = molecular target: T8, CREBBP (Homo sapiens, UniProt Q92793); assay: Bromodomain assay % Ctrl determination CREBBP; conditions: lower numbers indicate a stronger binding
T8 construct: T7 phage strains displaying bromodomains were grown; host or cells: T7 phage in E. coli derived from BL21
T8 sequence (Q92793 1085-1192 limits assumed): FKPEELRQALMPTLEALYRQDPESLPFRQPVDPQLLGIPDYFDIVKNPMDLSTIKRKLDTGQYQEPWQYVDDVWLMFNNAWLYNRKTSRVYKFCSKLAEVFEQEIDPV
Method: as §1

[9] = molecular target: T9, FALZ (Homo sapiens, UniProt Q12830); assay: Bromodomain assay % Ctrl determination FALZ; conditions: lower numbers indicate a stronger binding
T9 construct: T7 phage strains displaying bromodomains were grown in parallel; host or cells: T7 phage grown in E. coli host derived from BL21
Method: as §1

[10] = molecular target: T10, BRD1 (Homo sapiens, UniProt O95696); assay: Bromodomain assay % Ctrl determination BRD1; conditions: lower numbers indicate a stronger binding
T10 construct: T7 phage strains displaying bromodomains were grown in parallel; made in house; host or cells: T7 phage grown in an E. coli host derived from the BL21 strain
T10 sequence (O95696 562-666 limits assumed): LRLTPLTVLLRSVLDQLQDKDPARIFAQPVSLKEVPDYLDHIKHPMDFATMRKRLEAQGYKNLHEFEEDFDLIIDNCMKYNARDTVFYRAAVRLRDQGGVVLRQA
Method: as §1

[11] = molecular target: T11, BRD4(1) (Homo sapiens, UniProt O60885); assay: Bromodomain assay % Ctrl determination BRD4(1); conditions: lower numbers indicate a stronger binding
T11 construct: BRD4-BD1 was expressed and purified as described previously; made in house
Method: as §1

[12] = molecular target: T12, BAZ2A (Homo sapiens, UniProt Q9UIF9); assay: BROMOscan Kd determination BAZ2A; type: binding
T12 construct: T7 phage strains displaying bromodomains were grown in parallel; made in house; host or cells: T7 phage grown in an E. coli host derived from the BL21 strain
T12 sequence (Q9UIF9 1793-1897 limits assumed): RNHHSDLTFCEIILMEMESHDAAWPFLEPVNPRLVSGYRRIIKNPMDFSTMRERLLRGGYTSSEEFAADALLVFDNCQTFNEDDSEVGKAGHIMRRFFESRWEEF
Method: (§2) Bromodomain profiling was carried out on the basis of BROMOscan™. This platform accounted for the indirect determination of the dissociation constants between 19 bromodomains and the compound of formula (13), by binding competition against a reference immobilized ligand. Compounds that bind the bromodomain prevent its binding to the immobilized ligand thus reducing the amount of protein captured. […] Hits are identified by measuring the amount of bromodomain captured in test versus control samples. Bromodomain assays for Kd determination: T7 phage strains displaying bromodomains were grown in parallel in 24-well blocks in an E. coli host derived from the BL21 strain. E. coli were grown to log-phase and infected with T7 phage from a frozen stock (multiplicity of infection=0.4) and incubated with shaking at 32° C. until lysis (90-150 minutes). The lysates were centrifuged (5,000×g) and filtered (0.2 μm) to remove cell debris. […] Kds were determined using an 11-point 3-fold compound dilution series with one DMSO control point. […] The bromodomain concentration in the eluates was measured by qPCR. […] Most Kds were determined using a compound top concentration=10,000 nM. […] Binding Constants (Kds): Binding constants (Kds) were calculated with a standard dose-response curve using the Hill equation: The Hill Slope was set to −1. […]

[13] = molecular target: T13, BRPF3 (Homo sapiens, UniProt Q9ULD4); assay: BROMOscan Kd determination BRPF3; type: binding
T13 construct: T7 phage strains displaying bromodomains were grown; host or cells: T7 phage in E. coli derived from BL21
T13 sequence (Q9ULD4 589-693 limits assumed): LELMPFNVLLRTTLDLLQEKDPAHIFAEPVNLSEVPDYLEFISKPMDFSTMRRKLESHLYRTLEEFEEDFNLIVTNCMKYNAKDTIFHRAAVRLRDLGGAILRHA
Method: as §2

[14] = molecular target: T14, BRD2(1, 2) (Homo sapiens, UniProt P25440); assay: BROMOscan Kd determination BRD2(1, 2); type: binding
T14 construct: T7 phage strains displaying bromodomains were grown in parallel; made in house; host or cells: T7 phage grown in an E. coli host derived from the BL21 strain
T14 sequence (P25440 71-455 limits assumed): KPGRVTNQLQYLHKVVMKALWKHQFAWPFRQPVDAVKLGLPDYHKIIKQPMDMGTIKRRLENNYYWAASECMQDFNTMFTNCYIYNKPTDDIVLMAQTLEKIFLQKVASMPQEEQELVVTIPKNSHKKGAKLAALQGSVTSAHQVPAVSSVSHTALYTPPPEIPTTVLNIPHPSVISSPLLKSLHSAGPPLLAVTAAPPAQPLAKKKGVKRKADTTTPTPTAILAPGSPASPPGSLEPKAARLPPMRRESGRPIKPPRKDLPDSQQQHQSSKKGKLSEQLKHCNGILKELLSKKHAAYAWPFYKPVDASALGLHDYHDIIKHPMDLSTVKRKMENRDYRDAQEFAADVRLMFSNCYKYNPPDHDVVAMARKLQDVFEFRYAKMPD
Method: as §2

[15] = molecular target: T15, BAZ2B (Homo sapiens, UniProt Q9UIF8); assay: BROMOscan Kd determination BAZ2B; type: binding
T15 construct: T7 phage strains displaying bromodomains were grown in parallel; made in house; host or cells: T7 phage grown in an E. coli host derived from the BL21 strain
T15 sequence (Q9UIF8 2060-2164 limits assumed): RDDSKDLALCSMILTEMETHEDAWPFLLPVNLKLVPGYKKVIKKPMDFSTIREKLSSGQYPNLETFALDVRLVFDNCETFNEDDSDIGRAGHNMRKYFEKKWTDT
Method: as §2

[16] = molecular target: T16, BRD8(1) (Homo sapiens, UniProt Q9H0E9); assay: BROMOscan Kd determination BRD8(1); type: binding
T16 construct: T7 phage strains displaying bromodomains were grown; host or cells: T7 phage in E. coli derived from BL21
T16 sequence (Q9H0E9 706-811 limits assumed): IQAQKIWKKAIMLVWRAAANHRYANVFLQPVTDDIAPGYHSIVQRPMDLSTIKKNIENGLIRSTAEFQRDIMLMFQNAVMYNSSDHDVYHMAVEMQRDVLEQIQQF
Method: as §2

[17] = molecular target: T17, BRD3(1, 2) (Homo sapiens, UniProt Q15059); assay: BROMOscan Kd determination BRD3(1, 2); type: binding
T17 construct: T7 phage strains displaying bromodomains were grown in parallel; made in house; host or cells: T7 phage grown in an E. coli host derived from the BL21 strain
T17 sequence (Q15059 24-416 limits assumed): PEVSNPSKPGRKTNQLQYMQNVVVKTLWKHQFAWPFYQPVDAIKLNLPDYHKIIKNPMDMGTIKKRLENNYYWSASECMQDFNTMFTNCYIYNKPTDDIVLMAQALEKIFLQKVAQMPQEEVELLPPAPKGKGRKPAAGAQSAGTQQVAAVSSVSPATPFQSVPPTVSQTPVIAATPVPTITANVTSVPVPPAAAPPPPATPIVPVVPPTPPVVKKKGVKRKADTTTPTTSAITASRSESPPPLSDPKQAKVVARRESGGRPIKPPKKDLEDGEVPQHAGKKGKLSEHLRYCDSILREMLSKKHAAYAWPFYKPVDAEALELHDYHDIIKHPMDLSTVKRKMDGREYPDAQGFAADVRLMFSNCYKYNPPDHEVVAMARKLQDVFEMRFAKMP
Method: as §2

Row | Structure (SMILES) | % Ctrl @ 10 000 nM EP300 [1] [% Ctrl] | % Ctrl @ 10 000 nM BRD4(2) [2] [% Ctrl] | % Ctrl @ 10 000 nM TAF1(2) [3] [% Ctrl] | % Ctrl @ 10 000 nM PBRM1(5) [4] [% Ctrl] | % Ctrl @ 10 000 nM SMARCA4 [5] [% Ctrl] | % Ctrl @ 10 000 nM GCN5L2 [6] [% Ctrl] | % Ctrl @ 10 000 nM CECR2 [7] [% Ctrl] | % Ctrl @ 10 000 nM CREBBP [8] [% Ctrl] | % Ctrl @ 10 000 nM FALZ [9] [% Ctrl] | % Ctrl @ 10 000 nM BRD1 [10] [% Ctrl] | % Ctrl @ 10 000 nM BRD4(1) [11] [% Ctrl] | Kd [12] [nM] | Kd [13] [nM] | Kd [14] [nM] | Kd [15] [nM] | Kd [16] [nM] | Kd [17] [nM]
1 | COc1ccc(S(=O)(=O)N2CCOCC2)cc1NC(=O)c1[nH]c(C)c2c1CCCCC2=O [Compound 13, N-(2-methoxy-5-(morpholinosulfonyl)phenyl)-3-methyl-4-oxo-2,4,5,6,7,8-hexahydrocyclohepta[c]pyrrole-1-carboxamide] | 1.4 | 0 | 7.4 | 90 | 71 | 44 | 1.3 | 4.7 | 6.8 | 26 | 0 |  |  |  |  |  | 
2 | Cc1[nH]c(-c2cc(N)ccc2Cl)c2c1C(=O)CCCC2 [Compound 23] |  |  |  |  |  |  |  |  |  |  |  | 1900 | 6000 | 84 | 1800 | 2600 | 100

From US20220055989A1, “CONDENSED PYRROLES AS NOVEL BROMODOMAIN INHIBITORS” (ALBERT LUDWING UNIVERSITÄT FREIBURG, priority 2018, published 2022)
